Reference: patent publication US20200368315A1, “ANTIMICROBIAL PEPTIDES AND ADMIXTURES THEREOF SHOWING ANTIMICROBIAL ACTIVITY AGAINST GRAM-NEGATIVE PATHOGENS” (priority 2017, published 2020)
≈ marks a conversion by molar mass, not a printed value. Where “and” joins values, the source holds several entries; their conditions need not be identical. Identical values can stand only once. Like-named read-outs stand apart in the source and are kept apart here.

Key:
E. coli LMG15862 [1] = assay: microbe, parasite or virus in culture; format: cell-based, Escherichia coli; settings: E. coli LMG15862
Description: (§1) Escherichia coli, Klebsiella pneumoniae, Pseudomonas aeruginosa, Acinetobacter baumannii, Enterobacter aerogenes were grown in Luria-Bertani (LB) broth shaken (200 rpm) or on LB agar at 37° C. […] MICs tests were performed in duplicate by a liquid growth inhibition microdilution assays in sterilized polypropylene microtiter plates according to Wiegand and […] [27]. […] The suspension was diluted in a ratio of 1:100 using Mueller Hinton Broth (MHB) and the final inoculum is 5*10^5 CFU/mL. […] The antimicrobials were diluted serially by 1/2 one by one and 50 uL diluted bacterial suspension were added to each well to make the final volume to be 100 uL. Growth control was accomplished by remove 10 uL from well 11 and dilute 1000 times to plate 1/10 suspension on the solid medium. […] The number of colonies on the control agar plate should be around 50 to ensure the concentration of the inoculum and the effectiveness of the experiment. The lowest concentration of the antimicrobials that inhibits visible growth of the indicator is identified as MIC.

K. pneumoniae LMG20218 [2] = assay: microbe, parasite or virus in culture; format: cell-based, Klebsiella pneumoniae; settings: K. pneumoniae LMG20218
Description: as §1

P. aeruginosa LMG 6395 [3] = assay: microbe, parasite or virus in culture; format: cell-based, Pseudomonas aeruginosa; settings: P. aeruginosa LMG 6395
Description: as §1

A. baumannii LMG01041 [4] = assay: microbe, parasite or virus in culture; format: cell-based, Acinetobacter baumannii; settings: A. baumannii LMG01041
Description: as §1

E. aerogenes LMG 02094 [5] = assay: microbe, parasite or virus in culture; format: cell-based, Enterobacter aerogenes; settings: E. aerogenes LMG 02094
Description: as §1

E. coli LMG15862 [6] = format: cell-based, Escherichia coli
Text: (§2) The test of synergistic effect was processed by conducting standard chequerboard broth microdilution assays. Nisin (Drug X) was loaded two fold serially diluted from row 1 to 10 in X-axis while GNPs (Drug Y) were loaded in eight two fold serially diluted concentrations from line A to H in Y-axis (FIG. 1). The original concentrations of peptides were MICs of each. Row 11 are used as growth control with no peptide was included, while row 12 with MHB medium-only wells was included as a sterility control as referred before. 50 uL fresh bacterial suspension was added to well 1-11 and final volume of each well on the plate is 100 uL.
(§3) To determine whether the combination therapy is additive, synergistic or antagonistic, fractional inhibitory concentration (FIC) indices were calculated. FICI=FICa+FICb=MICac/MICa+MICbc/MICb. The MICa/MICb is the MIC of compound A/B alone. MICac is the MIC of compound A in combination with compound B and MICbc is the MIC of compound B when it was combination with compound A. […]. FICa is FIC of compound A while FICb is FIC of compound B. The FICI is interpreted as follows: synergistic, FICI≤0.5; additive, 0.5<FICI<1; indifferent, 1<FICI<2; antagonistic, FICI>2.

K. pneumoniae LMG20218 [7] = format: cell-based, Klebsiella pneumoniae
Text: as §2, §3

P. aeruginosa LMG 6395 [8] = format: cell-based, Pseudomonas aeruginosa
Text: as §2, §3

A. baumannii LMG01041 [9] = format: cell-based, Acinetobacter baumannii
Text: as §2, §3

E. aerogenes LMG 02094 [10] = format: cell-based, Enterobacter aerogenes
Text: as §2, §3

A. baumannii LMG01041 [11] = test system: A. baumannii LMG01041
Description: (§4) The test of synergistic effect was processed by conducting standard chequerboard broth microdilution assays. […] Row 11 are used as growth control with no peptide was included, while row 12 with MHB medium-only wells was included as a sterility control as referred before. 50 uL fresh bacterial suspension was added to well 1-11 and final volume of each well on the plate is 100 uL.
(§5) The test of synergistic effect was processed as method 1.4.
as §3

E. aerogenes LMG 02094 [12] = test system: E. aerogenes LMG 02094
Description: as §4, §5, §3

E. coli LMG15862 [13] = test system: E. coli LMG15862
Description: as §4, §5, §3

K. pneumoniae LMG20218 [14] = test system: K. pneumoniae LMG20218
Description: as §4, §5, §3

P. aeruginosa LMG 6395 [15] = test system: P. aeruginosa LMG 6395
Description: as §4, §5, §3

Gram-negative pathogens = format: cell-based; settings: L-form GNPs alone; five Gram-negative pathogens
Description: as §1

L. lactis MG1363 = settings: L. lactis MG1363
[16] = MIC of GNP when used with the MICac concentration of nisin
[17] = MIC of nisin in combination with the GNP at the MICbc concentration
[18] = MIC of GNP in combination with vancomycin at the MICac concentration
[19] = MIC of vancomycin in combination with the GNP at the MICbc concentration

CC[C@H](C)[C@H](NC(=O)[C@H](CCCNC(=N)N)NC(=O)[C@H](CCCNC(=N)N)NC(=O)[C@H](Cc1ccccc1)NC(=O)[C@H](CC(C)C)NC(=O)[C@H](CCCNC(=N)N)NC(=O)[C@@H](N)CCCNC(=N)N)C(=O)N[C@@H](CC(C)C)C(=O)N[C@@H](CCCNC(=N)N)C(=O)N[C@@H](Cc1c[nH]c2ccccc12)C(=O)N[C@@H](CC(C)C)C(N)=O [GNP-6]
MIC value of antimicrobial compounds alone (E. coli LMG15862 [1]): 2 µM | MICb (GNP concentration when used alone) (E. coli LMG15862 [1]; L-form GNP, Table 6): 2 µM | MIC value (E. coli LMG15862 [1]; alone): 2 µM (≈ 3.17 µg/mL) | MIC value of antimicrobial compounds alone (K. pneumoniae LMG20218 [2]): 4 µM | MICb (MIC of GNP alone) (K. pneumoniae LMG20218 [2]; L-form GNP, Table 7): 4 µM | MIC value (K. pneumoniae LMG20218 [2]; alone): 4 µM (≈ 6.34 µg/mL) | MICb (MIC of GNP alone) (P. aeruginosa LMG 6395 [3]; L-form GNP, Table 7): 3 µM | MIC value of antimicrobial compounds alone (P. aeruginosa LMG 6395 [3]): 3 µM | MIC value (P. aeruginosa LMG 6395 [3]; alone): 3 µM (≈ 4.75 µg/mL) | MIC value of antimicrobial compounds alone (A. baumannii LMG01041 [4]): 2 µM | MICb (MIC of GNP alone) (A. baumannii LMG01041 [4]; L-form GNP, Table 7): 2 µM | MIC value (A. baumannii LMG01041 [4]; alone): 2 µM (≈ 3.17 µg/mL) | MIC value of antimicrobial compounds alone (E. aerogenes LMG 02094 [5]): 8 µM | MICb (MIC of GNP alone) (E. aerogenes LMG 02094 [5]; L-form GNP, Table 7): 8 µM | MIC value (E. aerogenes LMG 02094 [5]; alone): 8 µM (≈ 12.7 µg/mL) | MICb (E. coli LMG15862 [6]; MIC of GNP alone): 2 µM | MICbc (E. coli LMG15862 [6]; [16]): 0.5 µM | MICac (E. coli LMG15862 [6]; [17]): 1.5 µM | FICI (E. coli LMG15862 [6]; nisin + GNP): 0.375 | MICb (K. pneumoniae LMG20218 [7]; MIC of GNP alone): 4 µM | MICbc (K. pneumoniae LMG20218 [7]; [16]): 0.5 µM | MICac (K. pneumoniae LMG20218 [7]; [17]): 3 µM | FICI (K. pneumoniae LMG20218 [7]; nisin + GNP): 0.188 | MICb (P. aeruginosa LMG 6395 [8]; MIC of GNP alone): 3 µM | MICbc (P. aeruginosa LMG 6395 [8]; [16]): 0.75 µM | MICac (P. aeruginosa LMG 6395 [8]; [17]): 4.5 µM | FICI (P. aeruginosa LMG 6395 [8]; nisin + GNP): 0.375 | MICb (A. baumannii LMG01041 [9]; MIC of GNP alone): 2 µM | MICbc (A. baumannii LMG01041 [9]; [16]): 0.5 µM | MICac (A. baumannii LMG01041 [9]; [17]): 0.75 µM | FICI (A. baumannii LMG01041 [9]; nisin + GNP): 0.375 | MICb (E. aerogenes LMG 02094 [10]; MIC of GNP alone): 8 µM | MICbc (E. aerogenes LMG 02094 [10]; [16]): 1 µM | MICac (E. aerogenes LMG 02094 [10]; [17]): 1 µM | FICI (E. aerogenes LMG 02094 [10]; nisin + GNP): 0.156 | MICb (A. baumannii LMG01041 [11]; MIC of GNP alone): 2 µM | MICbc (A. baumannii LMG01041 [11]; [18]): 0.5 µM and 1 µM | MICac (A. baumannii LMG01041 [11]; [19]): 8 µM and 4 µM | FICI (A. baumannii LMG01041 [11]; vancomycin + GNP): 0.5 and 0.625 | MICb (E. aerogenes LMG 02094 [12]; MIC of GNP alone): 8 µM | MICbc (E. aerogenes LMG 02094 [12]; [18]): 2 µM | MICac (E. aerogenes LMG 02094 [12]; [19]): 8 µM | FICI (E. aerogenes LMG 02094 [12]; vancomycin + GNP): 0.291 | MICb (E. coli LMG15862 [13]; MIC of GNP alone): 2 µM | MICbc (E. coli LMG15862 [13]; [18]): 0.5 µM | MICac (E. coli LMG15862 [13]; [19]): 16 µM | FICI (E. coli LMG15862 [13]; vancomycin + GNP): 0.5 | MICb (K. pneumoniae LMG20218 [14]; MIC of GNP alone): 4 µM | MICbc (K. pneumoniae LMG20218 [14]; [18]): 0.25 µM | MICac (K. pneumoniae LMG20218 [14]; [19]): 32 µM and 16 µM | FICI (K. pneumoniae LMG20218 [14]; vancomycin + GNP): 0.313 and 0.25 and 0.5 | MICb (P. aeruginosa LMG 6395 [15]; MIC of GNP alone): 3 µM | MICbc (P. aeruginosa LMG 6395 [15]; [18]): 1.5 µM | MICac (P. aeruginosa LMG 6395 [15]; [19]): 32 µM | FICI (P. aeruginosa LMG 6395 [15]; vancomycin + GNP): 0.75 | Activity ranking amongst all the GNPs (Gram-negative pathogens): most potent | MIC value of antimicrobial compounds alone (L. lactis MG1363): 1 µM
